The source of these data is ChEMBL document CHEMBL1201862, “PubChem BioAssay data set” (2004).

The source made the active and inactive calls. Where only a bound is given, the exact number is not on record here.

A short description of assay [1]: Luminescence Cell-Based/Microorganism Confirmation at Dose of Inhibitors of Trypanosoma cruzi Infection. [Related pubchem assays: 1885, 1968 ]. The class given is functional.
A short description of assay [2]: inhibitors of intracellular T. cruzi replication, confirmation, NIH3T3 host cells, beta-gal luminescence (AID 2044).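 Also: intracellular parasites grown in NIH/3T3 mouse fibroblasts as host cells; luminescent beta-galactosidase reporter signal from transgenic T. cruzi replicating inside host cells; inhibitors lower the luminescence signal.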 The class given is functional, cell-based.
The nature of assay [3]: Luminescence Cell-Based Secondary HTS screen to identify cytotoxic compounds of NIH3T3 cells. [Related pubchem assays: 1885, 1968 ]. The class given is functional.
Assay [4] can be described thus: cytotoxicity toward NIH3T3 fibroblasts, dose response, counter-screen, cell-based, ATP luminescence, mouse fibroblasts (AID 2010).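 Also: cells exposed to compound for about 90 hours before reading.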 The class given is functional. (In general: Counterscreens check selectivity or assay interference.)
For assay [5], the target named is T1, Microphthalmia-associated transcription factor (Homo sapiens, UniProt O75030).
T1 sequence (O75030 whole entry): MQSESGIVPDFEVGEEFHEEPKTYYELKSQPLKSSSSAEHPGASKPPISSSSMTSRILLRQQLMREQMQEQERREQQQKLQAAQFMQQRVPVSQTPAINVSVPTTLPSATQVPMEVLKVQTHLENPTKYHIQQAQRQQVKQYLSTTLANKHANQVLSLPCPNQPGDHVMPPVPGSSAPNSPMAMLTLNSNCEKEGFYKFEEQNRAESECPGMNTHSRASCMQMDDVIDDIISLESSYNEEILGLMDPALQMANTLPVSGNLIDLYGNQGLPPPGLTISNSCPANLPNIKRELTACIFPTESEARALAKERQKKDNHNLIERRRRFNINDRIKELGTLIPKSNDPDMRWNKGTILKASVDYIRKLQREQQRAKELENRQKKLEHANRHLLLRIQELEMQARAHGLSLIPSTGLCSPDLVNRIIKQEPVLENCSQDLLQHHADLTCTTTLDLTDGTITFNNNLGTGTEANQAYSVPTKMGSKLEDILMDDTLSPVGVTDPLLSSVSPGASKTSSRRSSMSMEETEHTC
The assay is described as follows: TRPM1 promoter luciferase signal decrease, dose response, MITF inhibitor project, cell-based, SK-MEL-5, cherry-picked, set 3 (AID 493073).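 Also: SK-MEL-5 melanoma cells with luciferase driven by the MITF target TRPM1 promoter.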 The class given is functional.

Assay [6] can be described thus: inhibitors of Trypanosoma cruzi host-cell infection, confirmation, beta-gal luminescence, NIH3T3 host cells (AID 2630). To be noted: Mus musculus. The class given is functional, cell-based.
Assay [7] relates to INS1. The assay is described as follows: beta cell apoptosis inhibitors, cytokine rescue, dose response, luminescence, retest (AID 449756).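 Also: cell death triggered by IL-1 beta plus TNF-alpha plus IFN-gamma mixture; protective hits raise ATP signal compared with cytokine alone wells.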 The class given is functional, cell-based. To be noted: Rattus norvegicus.
Assay [8] deals with T2, Ubiquitin-conjugating enzyme E2 N (Homo sapiens, UniProt P61088).
T2 sequence (P61088 whole entry): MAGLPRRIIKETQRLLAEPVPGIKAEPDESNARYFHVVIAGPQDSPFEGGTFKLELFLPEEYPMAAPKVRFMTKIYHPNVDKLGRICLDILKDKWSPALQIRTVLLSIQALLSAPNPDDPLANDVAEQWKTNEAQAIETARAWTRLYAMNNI
The class given is functional.

In assay [9] the target is Lysine-specific demethylase 4A (Homo sapiens, UniProt O75164). The assay is described as follows: JMJD2A histone demethylase inhibitors, dose response, selectivity assay for GASC-1 inhibitor project, biochemical, DELFIA europium, cherry-picked samples (AID 488840).
Sequence of Lysine-specific demethylase 4A (O75164 whole entry): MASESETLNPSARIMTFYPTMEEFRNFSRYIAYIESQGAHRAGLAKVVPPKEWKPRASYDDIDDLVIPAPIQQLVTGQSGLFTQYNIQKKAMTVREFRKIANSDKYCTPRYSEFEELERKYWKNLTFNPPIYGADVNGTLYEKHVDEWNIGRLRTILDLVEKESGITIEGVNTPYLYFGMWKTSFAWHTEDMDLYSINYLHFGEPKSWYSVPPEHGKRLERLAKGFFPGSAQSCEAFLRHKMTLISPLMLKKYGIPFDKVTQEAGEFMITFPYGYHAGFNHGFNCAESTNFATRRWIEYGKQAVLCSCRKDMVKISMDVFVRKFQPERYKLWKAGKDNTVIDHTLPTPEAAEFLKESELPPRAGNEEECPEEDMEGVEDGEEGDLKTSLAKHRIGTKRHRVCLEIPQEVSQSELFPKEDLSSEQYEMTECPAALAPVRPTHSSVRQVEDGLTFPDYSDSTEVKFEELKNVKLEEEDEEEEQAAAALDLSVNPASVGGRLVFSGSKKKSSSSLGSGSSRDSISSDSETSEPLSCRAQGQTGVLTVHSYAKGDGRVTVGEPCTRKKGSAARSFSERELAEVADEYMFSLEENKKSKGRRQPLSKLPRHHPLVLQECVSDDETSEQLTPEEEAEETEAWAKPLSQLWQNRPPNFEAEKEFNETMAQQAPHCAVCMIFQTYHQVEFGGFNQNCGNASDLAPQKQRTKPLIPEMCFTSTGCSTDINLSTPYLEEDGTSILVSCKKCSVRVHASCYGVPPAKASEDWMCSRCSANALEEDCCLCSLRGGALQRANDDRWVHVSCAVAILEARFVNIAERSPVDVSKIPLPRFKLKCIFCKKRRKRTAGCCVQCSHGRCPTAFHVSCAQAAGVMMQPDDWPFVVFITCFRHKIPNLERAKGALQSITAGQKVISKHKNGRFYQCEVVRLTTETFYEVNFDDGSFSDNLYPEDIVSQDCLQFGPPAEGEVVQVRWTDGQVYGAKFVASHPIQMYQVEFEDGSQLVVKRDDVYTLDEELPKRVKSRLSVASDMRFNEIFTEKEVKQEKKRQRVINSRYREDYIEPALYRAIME
Assay [10] relates to Escherichia coli. The assay can be described thus: microbe, parasite or virus in culture.
Assay [11] deals with Escherichia coli. The assay is described as follows: microbe, parasite or virus in culture. The source holds these as a separate data set.
Assay [12] concerns the target T3, Short transient receptor potential channel 4 (Mus musculus, UniProt Q9QUQ5).
T3 sequence (Q9QUQ5 whole entry): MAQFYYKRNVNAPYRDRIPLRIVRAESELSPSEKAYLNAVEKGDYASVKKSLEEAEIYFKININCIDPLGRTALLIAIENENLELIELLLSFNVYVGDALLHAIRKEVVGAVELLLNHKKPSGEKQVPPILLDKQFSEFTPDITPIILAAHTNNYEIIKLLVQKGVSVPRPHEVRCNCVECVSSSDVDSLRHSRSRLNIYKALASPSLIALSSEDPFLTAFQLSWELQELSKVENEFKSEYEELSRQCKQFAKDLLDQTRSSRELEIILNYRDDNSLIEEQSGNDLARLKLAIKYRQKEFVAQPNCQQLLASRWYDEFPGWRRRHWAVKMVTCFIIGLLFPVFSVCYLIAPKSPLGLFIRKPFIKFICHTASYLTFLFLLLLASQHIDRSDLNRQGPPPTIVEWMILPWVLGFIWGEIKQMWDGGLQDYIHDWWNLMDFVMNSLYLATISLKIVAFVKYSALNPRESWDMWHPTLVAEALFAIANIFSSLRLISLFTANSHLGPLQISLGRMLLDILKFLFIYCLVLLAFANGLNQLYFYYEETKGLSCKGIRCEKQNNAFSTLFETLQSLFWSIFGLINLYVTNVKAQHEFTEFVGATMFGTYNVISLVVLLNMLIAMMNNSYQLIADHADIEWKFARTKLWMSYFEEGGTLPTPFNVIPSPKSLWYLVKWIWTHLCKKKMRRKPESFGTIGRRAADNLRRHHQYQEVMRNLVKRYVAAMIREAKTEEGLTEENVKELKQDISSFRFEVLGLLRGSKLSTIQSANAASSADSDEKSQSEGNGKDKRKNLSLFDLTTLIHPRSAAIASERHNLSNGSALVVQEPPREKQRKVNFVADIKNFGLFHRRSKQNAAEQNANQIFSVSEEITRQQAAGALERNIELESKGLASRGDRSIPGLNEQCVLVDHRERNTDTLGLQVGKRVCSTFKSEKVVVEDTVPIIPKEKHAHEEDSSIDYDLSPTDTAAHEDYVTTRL
The assay can be described thus: SAR Analysis for the identification of selective inhibits of the transient receptor potential cation channel C4 (TRPC4): Automated Electrophysiology_2. [Related pubchem assays (depositor defined):AID2256]. The class given is functional.

In assay [13] the target is T3, Short transient receptor potential channel 4. The assay can be described thus: TRPC4 inhibitor concentration-response, dose response, cell-based, HEK293 TRPC4/mu-opioid, DAMGO stimulus, Fluo-4 (AID 492994). The class given is functional.
Assay [14] has as its system INS1. The assay is described as follows: protection from cytokine-induced mitochondrial depolarization, dose response, cell-based, INS-1E, JC-1 fluorescence ratio, dry powder (AID 488931). The note with it: Rattus norvegicus. The class given is functional.
The subject of assay [15] is INS1. The assay is described as follows: protection of INS-1E cells from cytokine death, dose response, ATP luminescence, dry powder (AID 488844). The class given is functional, cell-based. To be noted: Rattus norvegicus.

By EC50 is commonly meant the concentration that produces a half-maximal response. By AC50 is commonly meant the concentration at which the activity in the assay is half-maximal. As to `Cc1ccc(NC(=O)CCC(=O)N/N=C/c2ccc([N+](=O)[O-])o2)cc1C`, the concentration giving a half-maximal response (EC50) was 0.032 µM (active) in [1]; < 0.1 µM (active) in assay [2]; > 195 µM (not active) in [3]; > 30 µM (not active) in assay [4]; 0.032 µM (active) in assay [6]; 0.016 µM (active) in the assay “cells”. Besides, the AC50 in assay [5] is 6.25 µM (active); in the assay on INS1 [7] it was 7.44 µM (active).
What is called IC50 is the midpoint of a concentration-inhibition curve. With `C[C@@H](CN1CCC[C@H]1CN1C(N)=NC[C@@H]1Cc1ccccc1)N1C[C@@H](Cc2ccccc2)N(CCc2ccc(Cl)c(Cl)c2)C1=N`, in assay [8], the IC50 is > 20 µM (inactive). Besides, the AC50 in assay [9] was 9.21 µM (active); in the assay with Escherichia coli [10] it was 15.6 µM (active); in the assay with Escherichia coli [11], 24.1 µM (active).
For the molecule `CCN(CC)c1cc(C)c2ccccc2n1`, the IC50 in assay [12] was 7.54 µM (active); in assay [13], 5.24 µM (active).
As for `COc1ccc(S(=O)(=O)N(C)C[C@@H]2Oc3c(NC(=O)Nc4ccc5c(c4)OCO5)cccc3C(=O)N([C@@H](C)CO)C[C@H]2C)cc1`, the AC50 in the assay with INS1 [14] was 98.3 µM (active).
As to `COc1ccc(S(=O)(=O)N(C)C[C@@H]2Oc3c(NC(=O)Nc4ccc(F)cc4)cccc3C(=O)N([C@H](C)CO)C[C@H]2C)cc1`, the half-maximal activity concentration (AC50) with INS1 [15] was 41.7 µM (active).
